Data on 4 compounds can be found in patent publication US20090030005A1, “Combinations for the treatment of cancer” (AMGEN INC., priority 2007, published 2009).

Read-outs that look alike come from different tables or passages of the source.

What all share (type): cell-based
For one test, the system named is MiaPaCa-2 cells. Put plainly: 14C-thymidine incorporation assay, IC20 determination (MTAP status not specified). The note with it: Homo sapiens, MIA PaCa-2; same thymidine incorporation assay as Example 2. The method, then:
(§1) CDK4 inhibitor in MTAP^+/+ and MTAP^−/− MiaPaCa-2 cells. The IC50 of a CDK4 inhibitor was determined in the MTAP+/+ and MTAP−/− MiaPaCa-2 cells using a thymidine incorporation assay. MTAP^−/− and MTAP^+/+ MiaPaCa-2 cells from Example 1 were seeded at 2×10^4 cells/ml in 100 μl per well in Costar T plates (Amersham Biosciences). Twenty-four hours later a dose response of a CDK4 inhibitor PD-0332991 (1 nM; 3 nM, 10 nM, 30 nM, 100 nM, 300 nM, 1 μM, 3 μM, 10 μM and 30 μM concentrations) was added to triplicate wells. ^14C-Thymidine (0.1 μCi, Amersham) was added to each well for a final total volume of 200 μL. Plates were read on a beta counter for incorporation of the radioactive thymidine as a measure of cell viability at time 0, 24, 48, 72 and 96 hours. Data was calculated as the mean and standard deviation of triplicate samples divided by the mean and standard deviation of untreated control samples to yield percent of control.
Alanosine or MTX were then dosed at the IC20 concentrations together with a dose response of the CDK4 inhibitor with or without adenine or MTA.
In general terms: Uptake of a labelled nucleoside into DNA is a usual measure of proliferation.

The subject of another test is MTAP-/- MiaPaCa-2 cells. The test can be described thus: 14C-thymidine incorporation assay (cell viability) in MTAP-/- MiaPaCa-2 cells. The note with it: for IC50: Homo sapiens. The method, then: (§2) Generation of MTAP^+/+ and MTAP^−/− MiaPaCa-2 cells. MiaPaCa-2 pancreatic cells, which harbor a homozygous deletion in MTAP (MTAP^−/−) were obtained from ATCC. Cells were infected with either a control virus (pLPC) or a virus expressing MTAP (pLPC-MTAP). Infected cells were selected by puromycin resistance and maintained in 0.5 μg/ml puromycin. MTAP expression in MTAP^+/+ MiaPaCa-2 cells was confirmed by QPCR.
as §1
(§3) Combination of de novo purine biosynthesis inhibitor and CDK4 inhibitor in MTAP^−/− cells with adenine. MTAP^−/− MiaPaCa-2 cells from Example 1 were seeded at 2×10^4 cells/ml in 100 μl per well in Costar T plates (Amersham Biosciences). Twenty-four hours later a dose response of a CDK4 inhibitor PD-0332991 (1 nM; 3 nM, 10 nM, 30 nM, 100 nM, 300 nM, 1 μM, 3 μM, 10 μM and 30 μM concentrations) was added to triplicate wells with or without 1.7 μM (IC20) of alanosine. Some cells were also treated with 20 μM adenine (Sigma) as rescue substrate. ^14C-Thymidine (0.1 μCi, Amersham) was added to each well for a final total volume of 200 μL. Plates were read for incorporation of the radioactive thymidine as a measure of cell viability on a beta counter at time 0, 24, 48, 72 and 96 hours. Data was calculated as the mean and standard deviation of triplicate samples divided by the mean and standard deviation of untreated control samples to yield percent of control.
as §3, with “MTA.” for “adenine.”, “MTA” for “adenine”
(§4) Combination of MTX and CDK4 inhibitor in MTAP^−/− cells. MTAP^−/− MiaPaCa-2 cells from Example 1 were seeded at 2×10^4 cells/ml in 100 μl per well in Costar T plates (Amersham Biosciences). Twenty-four hours later a dose response of a CDK4 inhibitor PD-0332991 (1 nM; 3 nM, 10 nM, 30 nM, 100 nM, 300 nM, 1 μM, 3 μM, 10 μM and 30 μM concentrations) and thymidine (20 μM, Sigma) was added to triplicate wells with or without 20 nM (IC20) of MTX. ^14C-Thymidine (0.1 μCi, Amersham) was added to each well for a final total volume of 200 μL. Plates were read for incorporation of the radioactive thymidine as a measure of cell viability on a beta counter at time 0, 24, 48, 72 and 96 hours.

The next test deals with MTAP+/+ MiaPaCa-2 cells. Put plainly: 14C-thymidine incorporation assay (cell viability) in MTAP+/+ MiaPaCa-2 cells. The note with it: for IC50: Homo sapiens. The method, then:
as §2, §1
as §3, with “MTAP^+/+” for “MTAP^−/−”
Combination of de novo purine biosynthesis inhibitor and CDK4 inhibitor in MTAP^+/+ cells with MTA. MTAP^+/+ MiaPaCa-2 cells from Example 1 were seeded at 2×10^4 cells/ml in 100 μl per well in Costar T plates (Amersham Biosciences).
as §3, with “Twenty-four” for “Combination of de novo purine biosynthesis inhibitor and CDK4 inhibitor in MTAP^−/− cells with adenine. MTAP^−/− MiaPaCa-2 cells from Example 1 were seeded at 2×10^4 cells/ml in 100 μl per well in Costar T plates (Amersham Biosciences). Twenty-four”, “MTA” for “adenine”
as §4, with “MTAP^+/+” for “MTAP^−/−”

In the case of `CN(Cc1cnc2nc(N)nc(N)c2n1)c1ccc(C(=O)N[C@@H](CCC(=O)O)C(=O)O)cc1` [MTX, Methotrexate], the IC20 (as a rule, the concentration at which the effect reaches the 20% level) in the test on MiaPaCa-2 cells stood at 0.002 µM.
As to `CC(=O)c1c(C)c2cnc(Nc3ccc(N4CCNCC4)cn3)nc2n(C2CCCC2)c1=O` [PD-0332991], the IC50 (as a rule, the concentration that gives 50% inhibition) is 1.56 µM in the test on MTAP-/- MiaPaCa-2 cells (MIA PaCa-2, Example 2, first experiment, CDK4 inhibitor alone, MTAP-/- cells, FIG. 1, read-out: IC50 of the CDK4 inhibitor); 0.643 µM with MTAP-/- MiaPaCa-2 cells (MIA PaCa-2, MTAP-/- cells, 1.7 μM alanosine and 20 μM MTA, read-out: IC50 of the CDK4 inhibitor together with the alanosine and with MTA); 2.46 µM with MTAP-/- MiaPaCa-2 cells (MIA PaCa-2, MTAP-/- cells, 1.7 μM alanosine and 20 μM adenine, read-out: IC50 of the CDK4 inhibitor together with the alanosine and with adenine); 1.71 µM in the test with MTAP-/- MiaPaCa-2 cells (MIA PaCa-2, MTAP-/- cells, 20 μM MTA, read-out: IC50 of the CDK4 inhibitor together with the MTA); 0.95 µM in the test on MTAP-/- MiaPaCa-2 cells (MIA PaCa-2, MTAP-/- cells, 20 μM adenine, read-out: IC50 of the CDK4 inhibitor together with the adenine); 1.28 µM in the test on MTAP-/- MiaPaCa-2 cells (MIA PaCa-2, MTAP-/- cells, Examples 4 and 6, FIG. 3, 5, read-out: IC50 of the CDK4 inhibitor alone). Also, the IC50 in the test with MTAP-/- MiaPaCa-2 cells (MIA PaCa-2, MTAP-/- cells, with 1.7 μM (IC20) alanosine, read-out: IC50 of the CDK4 inhibitor together with the alanosine) was found to be 0.287 µM; in the test with MTAP-/- MiaPaCa-2 cells (MIA PaCa-2, MTAP-/- cells, with thymidine 20 μM and 20 nM (IC20) MTX, read-out: IC50 of the CDK4 inhibitor together with MTX), 0.8 µM; in the test on MTAP-/- MiaPaCa-2 cells (MIA PaCa-2, MTAP-/- cells, with thymidine 20 μM, Example 8, FIG. 7, read-out: IC50 of the CDK4 inhibitor alone), 1.3 µM; in the test on MTAP+/+ MiaPaCa-2 cells (MIA PaCa-2, Example 2, first experiment, CDK4 inhibitor alone, MTAP+/+ cells, FIG. 1, read-out: IC50 of the CDK4 inhibitor), 1.82 µM; in the test on MTAP+/+ MiaPaCa-2 cells (MIA PaCa-2, MTAP+/+ cells, 1.7 μM alanosine and 20 μM MTA, read-out: IC50 of the CDK4 inhibitor together with the alanosine and with MTA), 6.1 µM; with MTAP+/+ MiaPaCa-2 cells (MIA PaCa-2, MTAP+/+ cells, 1.7 μM alanosine and 20 μM adenine, read-out: IC50 of the CDK4 inhibitor together with the alanosine and with adenine), 5.56 µM. The IC50 came out at 8.25 µM with MTAP+/+ MiaPaCa-2 cells (MIA PaCa-2, MTAP+/+ cells, 20 μM MTA, read-out: IC50 of the CDK4 inhibitor together with the MTA); 7.36 µM in the test on MTAP+/+ MiaPaCa-2 cells (MIA PaCa-2, MTAP+/+ cells, 20 μM adenine, read-out: IC50 of the CDK4 inhibitor together with the adenine); 4.33 µM with MTAP+/+ MiaPaCa-2 cells (MIA PaCa-2, MTAP+/+ cells, Examples 3 and 5, FIG. 2, 4, read-out: IC50 of the CDK4 inhibitor alone); 0.996 µM in the test on MTAP+/+ MiaPaCa-2 cells (MIA PaCa-2, MTAP+/+ cells, with 1.7 μM (IC20) alanosine, read-out: IC50 of the CDK4 inhibitor together with the alanosine); 3.5 µM in the test on MTAP+/+ MiaPaCa-2 cells (MIA PaCa-2, MTAP+/+ cells, with thymidine 20 μM and 20 nM (IC20) MTX, read-out: IC50 of the CDK4 inhibitor together with MTX); 3.2 µM with MTAP+/+ MiaPaCa-2 cells (MIA PaCa-2, MTAP+/+ cells, with thymidine 20 μM, Example 7, FIG. 6, read-out: IC50 of the CDK4 inhibitor alone).
Regarding `Nc1ncnc2nc[nH]c12` [adenine], the “Rescue of the alanosine shift of the IC50 of the CDK4 inhibitor” value in the test with MTAP-/- MiaPaCa-2 cells (MTAP-/- cells, 20 μM rescue substrate) is reported as “rescued”; in the test with MTAP+/+ MiaPaCa-2 cells (MTAP+/+ cells, 20 μM rescue substrate), “rescued”.
As for `N[C@@H](CN(O)N=O)C(=O)O` [alanosine], the IC20 with MiaPaCa-2 cells amounted to 1.7 µM.
